Values of other authors in patent US20030130231A1, “2:1 Complex of beta- or gamma-cyclodextrin and alpha-tocopherol” (WACKER-CHEMIE GmbH, priority 2002, published 2003).
Where two headings read alike, the source gives them in different places.

How the values were obtained:
[1] = cited from earlier work
[2] = cited from earlier work; remark: listed apart in the source

Cc1c(C)c2c(c(C)c1O)CC[C@@](C)(CCC[C@H](C)CCC[C@H](C)CCCC(C)C)O2 [α-tocopherol]
can be kept in the original packaging ([1]; stored at 5° C.): up to 24 months | can be kept in the original packaging ([1]; stored at room temperature): ≤ 12 months | solubility in water [2]: insoluble in water
